Laboratory results taken from PMC10746543, “Design principles for cyclin K molecular glue degraders” (Nature Chemical Biology, 2023).
Values joined by “and” are separate entries in the source; they are usually repeats but may differ in a detail not shown here. Equal values may be shown once. Read-outs that look alike come from different tables or passages of the source.

Legend:
CDK12 = biological target: T1, CDK12 (Homo sapiens, UniProt Q16531+Q9NYV4); assay: Label-free quantitative mass spectrometry in MDA-MB-231 cells, CDK12; type: cell-based
T1 construct: endogenous in cells; host or cells: MDA-MB-231
Description: MDA-MB-231 cells were treated with DMSO or a cyclin K degrader compound at 1 µM for 5 h. Cells were collected by centrifugation and washed with phosphate-buffered saline before snap freezing in liquid nitrogen. Cells were lysed by addition of lysis buffer (8 M urea, 50 mM NaCl, 50 mM 4-(2-hydroxyethyl)-1-piperazineethanesulfonic acid (EPPS) pH 8.5, and protease and phosphatase inhibitors) and homogenization by bead beating (BioSpec) for three repeats of 30 s at 2,400 rpm. Bradford assay was used to determine the final protein concentration in the clarified cell lysate. Then 50 µg of protein for each sample was reduced, alkylated and precipitated using methanol/chloroform as previously described, and the resulting washed precipitated protein was allowed to air dry. Precipitated protein was resuspended in 4 M urea, 50 mM HEPES pH 7.4, followed by dilution to 1 M urea with the addition of 200 mM EPPS, pH 8. Proteins were first digested with LysC (1:50; enzyme:protein) for 12 h at room temperature. The LysC digestion was diluted to 0.5 M urea with 200 mM EPPS pH 8 followed by digestion with trypsin (1:50; enzyme:protein) for 6 h at 37 °C. Sample digests were acidified with formic acid to a pH of 2–3 before desalting using C18 solid phase extraction plates (SOLA, Thermo Fisher Scientific). Desalted peptides were dried in a vacuum-centrifuged and reconstituted in 0.1% formic acid for liquid chromatography–mass spectrometry analysis.
Data were collected using a TimsTOF Pro2 (Bruker Daltonics) coupled to a nanoElute LC pump (Bruker Daltonics) via a CaptiveSpray nano-electrospray source. Peptides were separated on a reversed-phase C18 column (25 cm × 75 µm inner diameter, […], IonOpticks) containing an integrated captive spray emitter. Peptides were separated using a 50 min gradient of 2–30% buffer B (acetonitrile in 0.1% formic acid) with a flow rate of 250 nl min^−1 and column temperature maintained at 50 °C.
Data-dependent acquisition (DDA) was performed in Parallel Accumulation-Serial Fragmentation (PASEF) mode to determine effective ion mobility windows for downstream diaPASEF data collection. The ddaPASEF parameters included: 100% duty cycle using accumulation and ramp times of 50 ms each, one Trapped Ion Mobility Spectrometry(TIMS)-MS scan and ten PASEF ramps per acquisition cycle. The TIMS-MS survey scan was acquired between 100 m/z and 1,700 m/z and 1/K0 of 0.7–1.3 V s cm^−2. Precursors with one to five charges were selected, and those that reached an intensity threshold of 20,000 arbitrary units were actively excluded for 0.4 min. The quadrupole isolation width was set to 2 m/z for m/z < 700 and 3 m/z for m/z > 800, with the m/z between 700 m/z and 800 m/z being interpolated linearly. […] To perform diaPASEF, the precursor distribution in the DDA m/z-ion mobility plane was used to design an acquisition scheme for data-independent acquisition (DIA) data collection that included two windows in each 50 ms diaPASEF scan. Data were acquired using 16 of these 25 Da precursor double window scans (creating 32 windows) that covered the diagonal scan line for doubly and triply charged precursors, with singly charged precursors able to be excluded by their position in the m/z-ion mobility plane. These precursor isolation windows were defined between 400 m/z and 1,200 m/z and 1/K0 of 0.7–1.3 V s cm^−2.
DirectDIA mode includes first extracting the DIA data into a collection of MS2 spectra which are searched using Spectronaut’s Pulsar search engine. The search results are then used to generate a spectral library which is then employed for the targeted analysis of the DIA data. MS/MS spectra were searched against a Swissprot human database (January 2021). Database search criteria largely followed the default settings for directDIA including: tryptic with two missed cleavages, fixed carbomidomethylation of cysteine, and variable oxidation of methionine and acetylation of protein N-termini and precursor Q-value (FDR) cut-off of 0.01. […]

CDK12–cyclin K = CDK12–cyclin K (Homo sapiens, UniProt Q9NYV4); assay: Lanthascreen kinase binding assay, CDK12; settings: for Lanthascreen raw signal, sheet CDK12: duplicates
Description: Lanthascreen experiments were performed using commercially available reagents (Thermo Fisher) and according to the manufacturer’s instructions.

[1] = test system: cyclin K–eGFP degradation reporter; assay: Cyclin K reporter stability analysis (dual-color cyclin K–eGFP reporter); type: cell-based, human
Procedure, shortened: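 A 5 h treatment of HEK293T–Cas9 cells expressing the degradation reporter preceded flow cytometry; eGFP over mCherry, normalized to DMSO.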

[2] = Supplementary Table 2, read-out: Lanthascreen IC50 [nM] CDK12
[3] = source data sheet correlations, read-out: DC50
[4] = compound 0.038147 nM, series r13
[5] = compound 0.152588 nM, series r13
[6] = compound 0.610352 nM, series r13
[7] = compound 9.76563 nM, series r13
[8] = compound 39.0625 nM, series r13

T1 sequence (Q9NYV4 whole entry): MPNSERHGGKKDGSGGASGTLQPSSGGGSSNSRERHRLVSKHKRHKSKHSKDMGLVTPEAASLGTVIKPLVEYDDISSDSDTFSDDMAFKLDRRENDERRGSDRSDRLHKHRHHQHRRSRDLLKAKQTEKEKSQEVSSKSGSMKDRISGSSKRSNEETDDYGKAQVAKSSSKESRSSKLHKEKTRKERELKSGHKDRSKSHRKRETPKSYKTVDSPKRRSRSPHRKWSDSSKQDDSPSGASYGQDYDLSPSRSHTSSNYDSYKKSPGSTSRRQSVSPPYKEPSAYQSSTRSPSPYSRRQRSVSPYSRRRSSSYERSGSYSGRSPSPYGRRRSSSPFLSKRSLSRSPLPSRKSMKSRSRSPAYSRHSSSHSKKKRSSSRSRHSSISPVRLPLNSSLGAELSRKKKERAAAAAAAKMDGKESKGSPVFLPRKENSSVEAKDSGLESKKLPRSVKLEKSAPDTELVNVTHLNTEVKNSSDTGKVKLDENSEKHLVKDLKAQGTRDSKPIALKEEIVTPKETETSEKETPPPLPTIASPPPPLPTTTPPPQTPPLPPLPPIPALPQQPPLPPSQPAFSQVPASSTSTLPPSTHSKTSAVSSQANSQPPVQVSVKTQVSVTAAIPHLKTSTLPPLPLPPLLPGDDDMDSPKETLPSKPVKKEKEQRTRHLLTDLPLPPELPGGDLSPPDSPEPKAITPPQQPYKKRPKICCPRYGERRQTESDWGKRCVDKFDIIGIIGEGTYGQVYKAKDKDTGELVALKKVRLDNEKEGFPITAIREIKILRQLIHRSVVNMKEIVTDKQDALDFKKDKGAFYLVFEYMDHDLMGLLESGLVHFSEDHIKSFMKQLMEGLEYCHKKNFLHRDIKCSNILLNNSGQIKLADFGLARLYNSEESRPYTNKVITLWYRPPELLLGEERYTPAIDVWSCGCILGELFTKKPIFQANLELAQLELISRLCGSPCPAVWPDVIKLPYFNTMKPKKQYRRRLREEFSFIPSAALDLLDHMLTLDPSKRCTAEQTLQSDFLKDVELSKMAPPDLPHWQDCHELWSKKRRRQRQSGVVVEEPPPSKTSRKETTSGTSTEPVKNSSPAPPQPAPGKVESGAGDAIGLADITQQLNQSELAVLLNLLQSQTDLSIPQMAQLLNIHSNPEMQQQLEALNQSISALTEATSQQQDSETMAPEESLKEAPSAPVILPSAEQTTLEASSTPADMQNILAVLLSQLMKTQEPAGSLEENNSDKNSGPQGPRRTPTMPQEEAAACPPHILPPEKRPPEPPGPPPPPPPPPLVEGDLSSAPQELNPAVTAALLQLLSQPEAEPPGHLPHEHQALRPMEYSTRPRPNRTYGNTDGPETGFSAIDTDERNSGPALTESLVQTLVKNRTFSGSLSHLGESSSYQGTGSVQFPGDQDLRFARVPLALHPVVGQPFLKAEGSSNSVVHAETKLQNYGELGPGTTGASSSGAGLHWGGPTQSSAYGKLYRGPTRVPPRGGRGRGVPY
T1 sequence (O75909 whole entry partner): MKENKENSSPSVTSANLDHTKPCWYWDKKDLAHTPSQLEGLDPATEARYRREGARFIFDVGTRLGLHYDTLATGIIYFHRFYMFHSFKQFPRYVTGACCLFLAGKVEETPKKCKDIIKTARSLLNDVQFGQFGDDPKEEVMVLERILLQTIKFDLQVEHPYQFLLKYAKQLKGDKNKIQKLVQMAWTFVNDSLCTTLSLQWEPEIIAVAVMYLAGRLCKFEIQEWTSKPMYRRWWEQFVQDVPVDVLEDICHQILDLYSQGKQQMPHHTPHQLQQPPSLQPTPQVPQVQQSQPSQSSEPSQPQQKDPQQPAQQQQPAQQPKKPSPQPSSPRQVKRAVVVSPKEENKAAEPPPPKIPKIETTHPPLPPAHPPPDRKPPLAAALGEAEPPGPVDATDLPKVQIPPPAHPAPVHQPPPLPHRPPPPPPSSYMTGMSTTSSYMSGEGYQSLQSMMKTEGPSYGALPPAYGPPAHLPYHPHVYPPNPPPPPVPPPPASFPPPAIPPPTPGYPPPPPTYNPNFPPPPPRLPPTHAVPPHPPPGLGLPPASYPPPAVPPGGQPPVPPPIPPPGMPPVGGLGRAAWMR
T1 sequence (Q16531 2-1140 limits assumed): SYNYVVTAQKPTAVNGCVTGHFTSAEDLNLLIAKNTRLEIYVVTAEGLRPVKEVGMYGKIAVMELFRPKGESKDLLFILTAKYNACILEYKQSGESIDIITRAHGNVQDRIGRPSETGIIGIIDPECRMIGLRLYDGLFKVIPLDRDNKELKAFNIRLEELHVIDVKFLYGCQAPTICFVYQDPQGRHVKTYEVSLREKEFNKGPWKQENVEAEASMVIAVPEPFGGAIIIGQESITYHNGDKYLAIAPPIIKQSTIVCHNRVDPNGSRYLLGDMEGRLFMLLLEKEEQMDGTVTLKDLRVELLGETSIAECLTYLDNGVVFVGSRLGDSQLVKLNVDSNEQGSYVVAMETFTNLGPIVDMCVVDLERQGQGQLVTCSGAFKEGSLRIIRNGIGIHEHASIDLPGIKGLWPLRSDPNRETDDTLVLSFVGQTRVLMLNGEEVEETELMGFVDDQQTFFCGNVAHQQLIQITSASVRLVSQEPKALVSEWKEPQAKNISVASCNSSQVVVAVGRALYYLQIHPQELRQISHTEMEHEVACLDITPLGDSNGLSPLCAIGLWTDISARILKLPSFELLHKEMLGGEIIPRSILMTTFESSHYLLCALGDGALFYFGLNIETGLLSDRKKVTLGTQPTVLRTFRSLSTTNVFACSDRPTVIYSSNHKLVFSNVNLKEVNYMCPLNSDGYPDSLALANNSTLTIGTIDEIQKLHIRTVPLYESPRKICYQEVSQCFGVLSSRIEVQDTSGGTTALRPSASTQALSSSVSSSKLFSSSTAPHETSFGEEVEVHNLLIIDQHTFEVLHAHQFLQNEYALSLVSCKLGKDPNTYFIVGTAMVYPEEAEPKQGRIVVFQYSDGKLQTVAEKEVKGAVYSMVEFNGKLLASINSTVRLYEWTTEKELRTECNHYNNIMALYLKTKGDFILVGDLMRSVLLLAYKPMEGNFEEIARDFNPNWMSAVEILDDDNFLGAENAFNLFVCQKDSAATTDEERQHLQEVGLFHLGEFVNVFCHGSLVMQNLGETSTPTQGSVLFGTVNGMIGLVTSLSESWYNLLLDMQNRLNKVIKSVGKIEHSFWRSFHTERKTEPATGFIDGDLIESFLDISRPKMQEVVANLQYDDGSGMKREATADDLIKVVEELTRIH
Chain of CDK12–cyclin K (Q9NYV4 713-1052): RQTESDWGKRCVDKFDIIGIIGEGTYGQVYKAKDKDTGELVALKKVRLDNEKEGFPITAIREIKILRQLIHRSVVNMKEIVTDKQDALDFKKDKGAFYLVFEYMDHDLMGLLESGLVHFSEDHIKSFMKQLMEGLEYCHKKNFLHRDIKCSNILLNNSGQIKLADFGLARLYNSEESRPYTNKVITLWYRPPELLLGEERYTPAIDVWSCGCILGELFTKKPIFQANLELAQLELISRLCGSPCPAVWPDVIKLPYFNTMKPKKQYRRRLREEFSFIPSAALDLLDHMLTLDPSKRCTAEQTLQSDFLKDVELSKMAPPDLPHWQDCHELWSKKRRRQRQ
Chain of CDK12–cyclin K (O75909 1-267 partner limits assumed): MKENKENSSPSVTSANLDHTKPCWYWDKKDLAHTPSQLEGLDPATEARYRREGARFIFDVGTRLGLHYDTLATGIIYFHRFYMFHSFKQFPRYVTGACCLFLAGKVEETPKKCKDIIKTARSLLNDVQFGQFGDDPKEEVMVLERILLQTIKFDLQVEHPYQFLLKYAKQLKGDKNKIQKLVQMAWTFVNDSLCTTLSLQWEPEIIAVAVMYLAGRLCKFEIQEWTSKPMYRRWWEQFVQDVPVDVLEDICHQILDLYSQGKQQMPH

Row | SMILES | IC50 (CDK12–cyclin K; [2]) [nM] | DC50 [1, 3] [nM] | Lanthascreen raw signal, sheet CDK12 (CDK12–cyclin K; [4]) | Lanthascreen raw signal, sheet CDK12 (CDK12–cyclin K; [5]) | Lanthascreen raw signal, sheet CDK12 (CDK12–cyclin K; [6]) | Lanthascreen raw signal, sheet CDK12 (CDK12–cyclin K; compound 1.02544 nM, series r1) | Lanthascreen raw signal, sheet CDK12 (CDK12–cyclin K; compound 3.15521 nM, series r1) | Lanthascreen raw signal, sheet CDK12 (CDK12–cyclin K; compound 9.46563 nM, series r1) | Lanthascreen raw signal, sheet CDK12 (CDK12–cyclin K; [7]) | Lanthascreen raw signal, sheet CDK12 (CDK12–cyclin K; compound 31.5521 nM, series r1) | Lanthascreen raw signal, sheet CDK12 (CDK12–cyclin K; [8]) | Lanthascreen raw signal, sheet CDK12 (CDK12–cyclin K; compound 99.3891 nM, series r1) | Lanthascreen raw signal, sheet CDK12 (CDK12–cyclin K; compound 156.25 nM, series r13) | Lanthascreen raw signal, sheet CDK12 (CDK12–cyclin K; compound 315.521 nM, series r1) | Lanthascreen raw signal, sheet CDK12 (CDK12–cyclin K; compound 625 nM, series r13) | Lanthascreen raw signal, sheet CDK12 (CDK12–cyclin K; compound 2500 nM, series r13) | Lanthascreen raw signal, sheet CDK12 (CDK12–cyclin K; compound 3155.21 nM, series r1) | Lanthascreen raw signal, sheet CDK12 (CDK12–cyclin K; compound 10000 nM, series r13) | Lanthascreen raw signal, sheet CDK12 (CDK12–cyclin K; compound 10002 nM, series r1) | also measured
1 | CC[C@H](CO)Nc1nc(NCc2nc3cc(Cl)c(Cl)cc3[nH]2)c2ncn(C(C)C)c2n1 [DS17] | 117 | 12 |  |  |  |  |  |  |  |  |  |  |  |  |  |  |  |  |  | CDK12 peptide count (CDK12; label-free quantitative MS, replicate values): 546.795 and 667.348; CDK12 peptide count (DMSO-normalised) (CDK12; normalised to DMSO = 1, replicate values): 0.6075 and 0.6893; CDK inhibitory selectivity, result in words (CDK12–cyclin K; Lanthascreen across CDK2/9/12): CDK12 selective; Lanthascreen raw signal, sheet CDK12 (CDK12–cyclin K; compound 0.038147 nM, series r37): 0.01439 and 0.01466; Lanthascreen raw signal, sheet CDK12 (CDK12–cyclin K; compound 0.152588 nM, series r37): 0.01355 and 0.01465; Lanthascreen raw signal, sheet CDK12 (CDK12–cyclin K; compound 0.610352 nM, series r37): 0.01399 and 0.01278; Lanthascreen raw signal, sheet CDK12 (CDK12–cyclin K; compound 9.76563 nM, series r37): 0.01302 and 0.01264; Lanthascreen raw signal, sheet CDK12 (CDK12–cyclin K; compound 39.0625 nM, series r37): 0.01048 and 0.01099; Lanthascreen raw signal, sheet CDK12 (CDK12–cyclin K; compound 156.25 nM, series r37): 0.008496 and 0.009307; Lanthascreen raw signal, sheet CDK12 (CDK12–cyclin K; compound 625 nM, series r37): 0.00749 and 0.007398; Lanthascreen raw signal, sheet CDK12 (CDK12–cyclin K; compound 2500 nM, series r37): 0.006169 and 0.00594; Lanthascreen raw signal, sheet CDK12 (CDK12–cyclin K; compound 10000 nM, series r37): 0.005029 and 0.005256
2 | O=C(CSc1nnc2c(n1)[nH]c1ccccc12)Nc1ccc(Cl)cn1 [dCeMM2] | > 10000 | 633 | 0.0112 and 0.01094 | 0.01131 and 0.01094 | 0.0113 and 0.01155 | 0.009008 and 0.01048 | 0.01033 and 0.00928 | 0.007656 and 0.01097 | 0.01084 and 0.01176 | 0.008129 and 0.008647 | 0.01123 and 0.01099 | 0.008644 and 0.009455 | 0.01158 and 0.0119 | 0.008456 and 0.007711 | 0.01045 and 0.01083 | 0.01145 and 0.01174 | 0.008398 and 0.008586 | 0.01298 and 0.0125 | 0.01123 and 0.01167 | IC50 (CDK12–cyclin K; Lanthascreen, average, Extended Data Fig. 8, read-out: CDK12 IC50): > 10000 nM
3 | O=C(CSc1nc2ccccc2[nH]1)Nc1ccc(Cl)cn1 [dCeMM3] | 2670 |  | 0.01104 and 0.01163 | 0.01112 and 0.01168 | 0.01247 and 0.01238 | 0.009603 and 0.009325 | 0.009514 and 0.008733 | 0.008364 and 0.009802 | 0.01196 and 0.01162 | 0.009806 and 0.008597 | 0.01144 and 0.01131 | 0.01036 and 0.01052 | 0.01124 and 0.01129 | 0.008735 and 0.009176 | 0.01063 and 0.01139 | 0.009917 and 0.009154 | 0.007612 and 0.007481 | 0.007835 and 0.008247 | 0.006896 and 0.007143 | DC50 ([1]; Supplementary Table 2, HEK293T cycK-eGFP reporter, 5 h, read-out: Cellular assays DC50): > 10000 nM
4 | Cc1cc2nc(CNc3nc(N4CCN(C)CC4)nc4c(Br)cnn34)[nH]c2cc1C [DS73, reference compound] | 25 | 1 |  |  |  | 0.01046 and 0.009798 | 0.009054 and 0.008698 | 0.00642 and 0.008208 |  | 0.007402 and 0.006928 |  | 0.007817 and 0.006924 |  | 0.006025 and 0.005353 |  |  | 0.005515 and 0.005262 |  | 0.006527 and 0.0053 | 
5 | Cc1ccc(C(=O)N2CSCC2C(=O)Nc2ncc(C)s2)o1 (stereo not shown) [dCeMM4] | 6550 | 1210 | 0.01232 and 0.01243 | 0.01076 and 0.01116 | 0.0114 and 0.01052 | 0.009042 and 0.01099 | 0.01068 and 0.009679 | 0.009286 and 0.009664 | 0.01092 and 0.01022 | 0.009025 and 0.009021 | 0.01118 and 0.01016 | 0.008619 and 0.008828 | 0.01038 and 0.009956 | 0.009446 and 0.008194 | 0.01123 and 0.01103 | 0.01034 and 0.009721 | 0.008559 and 0.007567 | 0.008264 | 0.008529 and 0.007315 | Lanthascreen raw signal, sheet CDK12 (CDK12–cyclin K; compound 0.038147 nM, series r49): 0.008613 and 0.007971; Lanthascreen raw signal, sheet CDK12 (CDK12–cyclin K; compound 0.152588 nM, series r49): 0.01012 and 0.009882; Lanthascreen raw signal, sheet CDK12 (CDK12–cyclin K; compound 0.610352 nM, series r49): 0.009497 and 0.01011; Lanthascreen raw signal, sheet CDK12 (CDK12–cyclin K; compound 9.76563 nM, series r49): 0.01048 and 0.01041; Lanthascreen raw signal, sheet CDK12 (CDK12–cyclin K; compound 39.0625 nM, series r49): 0.009518 and 0.009698; Lanthascreen raw signal, sheet CDK12 (CDK12–cyclin K; compound 156.25 nM, series r49): 0.009802 and 0.01107; Lanthascreen raw signal, sheet CDK12 (CDK12–cyclin K; compound 625 nM, series r49): 0.008992 and 0.00907; Lanthascreen raw signal, sheet CDK12 (CDK12–cyclin K; compound 2500 nM, series r49): 0.009117 and 0.008384; Lanthascreen raw signal, sheet CDK12 (CDK12–cyclin K; compound 10000 nM, series r49): 0.007507 and 0.007835
